Source: patent US20260062422A1 (Halda Therapeutics OpCo, Inc., priority 2022, published 2026)

Experiments:
[1] = system: T-Rex 293 cell line SC3 cells lacking increased expression of androgen receptor protein; experiment: Cellular growth inhibition, T-Rex 293 SC3 cells without doxycycline, CellTiter-Glo; format: cell-based; conditions: 72 h, T-Rex 293 SC3 cells not exposed to doxycycline, CellTiter-Glo 2.0
Procedure, shortened: (§1)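 Cells of clone SC3 are seeded in charcoal-dextran-stripped serum medium with or without 10 ng/mL doxycycline to induce wild-type androgen receptor. After 24 h, serial compound dilutions are added at 0.5% DMSO and incubated 72 h at 37 °C. CellTiter-Glo 2.0 measures viability, giving GI50 values.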

[2] = system: T-Rex 293 cell line SC3 cells having increased expression of androgen receptor protein due to exposure to doxycycline; experiment: Cellular growth inhibition, T-Rex 293 SC3 cells with doxycycline (androgen receptor induced), CellTiter-Glo; format: cell-based; conditions: 72 h, T-Rex 293 SC3 cells with 10 ng/mL doxycycline (increased androgen receptor expression)
Procedure, shortened: as §1

[3] = system: VCaP cells; experiment: Cellular growth inhibition assay for VCaP cells, CellTiter-Glo; format: cell-based, human; conditions: Homo sapiens, VCaP, 72 h, 72 hours treatment, CellTiter-Glo 2.0
Procedure, shortened: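 GI50 values come from four-parameter curve fits of luminescence data normalized to a zero baseline. Compound, in medium with 0.5% DMSO, was added one day after plating and left for 72 h before CellTiter-Glo 2.0 addition.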

[4] = system: T47D cells; experiment: Cellular growth inhibition assay for T47D cells, CellTiter-Glo; format: cell-based, human; conditions: Homo sapiens, T47D, 72 h, 72 hours treatment, CellTiter-Glo 2.0 cell viability
Procedure, shortened: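 Luminescence from CellTiter-Glo 2.0 after 72 h of compound exposure gives the viability signal. Cells grew in insulin-supplemented (0.2 units/mL) DMEM with 10% FBS and were treated one day after seeding at 0.5% DMSO. GI50 values come from four-parameter nonlinear regression.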

SMILES | GI50 [1] [nM] | GI50 [2] [nM] | GI50 [3] [nM] | GI50 [4] [nM]
Cc1sc2c(c1C)C(c1ccc(CN(C)C(=O)[C@@H]3CC[C@H](c4ncc(C(=O)N[C@H]5C(C)(C)[C@H](Oc6ccc(C#N)c(Cl)c6)C5(C)C)cn4)C3)cc1)=N[C@@H](Cc1ncco1)c1nnc(C)n1-2 [Compound I-371] | > 3000 | < 500 | < 500 | 500 to 1500
Cc1sc2c(c1C)C(c1ccc(-c3cc(C4CCN(c5ncc(C(=O)N[C@H]6C(C)(C)[C@H](Oc7ccc(C#N)c(Cl)c7)C6(C)C)cn5)CC4)on3)cc1)=N[C@@H](Cc1ncco1)c1nnc(C)n1-2 [Compound I-453] | > 3000 | < 500 | < 500 | < 500
COCC[C@@H]1N=C(c2ccc(CC3CC4(CCN(c5ncc(C(=O)N[C@H]6C(C)(C)[C@H](Oc7ccc(C#N)c(Cl)c7)C6(C)C)cn5)CC4)C3)cc2)c2c(sc(C)c2C)-n2c(C)nnc21 [Compound I-585] | > 3000 | < 500 | < 500 | < 500
Cc1sc2c(c1C)C(c1ccc(C(C)(C)N3CC4(CCCN(c5ncc(C(=O)N[C@H]6C(C)(C)[C@H](Oc7ccc(C#N)c(Cl)c7)C6(C)C)cn5)C4)C3)cc1)=N[C@@H](Cc1ncco1)c1nnc(C)n1-2 [Compound I-439] | > 3000 | < 500 | > 3000 | > 3000
Cc1sc2c(c1C)C(c1ccc([C@@H]3CC[C@]4(C3)CN(c3ncc(C(=O)N[C@H]5C(C)(C)[C@H](Oc6ccc(C#N)c(Cl)c6)C5(C)C)cn3)CCO4)cc1)=N[C@@H](Cc1ncco1)c1nnc(C)n1-2 [Compound I-405] | 500 to 1500 | < 500 | < 500 | < 500
Cc1sc2c(c1C)C(c1ccc(C#CC3CC4(C3)CN(c3ncc(C(=O)N[C@H]5C(C)(C)[C@H](Oc6ccc(C#N)c(Cl)c6)C5(C)C)cn3)C4)cc1)=N[C@@H](C)c1nnc(C)n1-2 [Compound I-349] | < 500 | < 500 | < 500 | < 500
Cc1sc2c(c1C)C(c1ccc([C@H]3CCN(C(=O)[C@H]4CCCN(c5ncc(C(=O)N[C@H]6C(C)(C)[C@H](Oc7ccc(C#N)c(Cl)c7)C6(C)C)cn5)C4)C3)cc1)=N[C@@H](Cc1ncco1)c1nnc(C)n1-2 [Compound I-387] | 500 to 1500 | < 500 | < 500 | < 500
Cc1sc2c(c1C)C(c1ccc([C@H]3C[C@H](C4CCN(c5ncc(C(=O)N[C@H]6C(C)(C)[C@H](Oc7ccc(C#N)c(Cl)c7)C6(C)C)cn5)CC4)C3)cc1)=N[C@@H](Cc1ncco1)c1nnc(C)n1-2 [Compound I-399] | > 3000 | < 500 | 500 to 1500 | < 500
Cc1sc2c(c1C)C(c1ccc(CNC(=O)[C@@H]3CCCN(c4ncc(C(=O)N[C@H]5C(C)(C)[C@H](Oc6ccc(C#N)c(Cl)c6)C5(C)C)cn4)C3)cc1)=N[C@@H](Cc1ncco1)c1nnc(C)n1-2 [Compound I-265] | 1500 to 3000 | < 500 | < 500 | < 500
Cc1sc2c(c1C)C(c1ccc(CNC(=O)CN(C)c3ncc(C(=O)N[C@H]4C(C)(C)[C@H](Oc5ccc(C#N)c(Cl)c5)C4(C)C)cn3)cc1)=N[C@@H](Cc1ncco1)c1nnc(C)n1-2 [Compound I-266] | > 3000 | < 500 | < 500 | 500 to 1500
Cc1sc2c(c1C)C(c1ccc(C3(N(C)CC4CCN(c5ncc(C(=O)N[C@H]6C(C)(C)[C@H](Oc7ccc(C#N)c(Cl)c7)C6(C)C)cn5)CC4)COC3)cc1)=N[C@@H](C)c1nnc(C)n1-2 [Compound I-377] | > 3000 | > 3000 | > 3000 | > 3000
Cc1sc2c(c1C)C(c1ccc(OC[C@H]3C[C@]4(CCCN(c5ncc(C(=O)N[C@H]6C(C)(C)[C@H](Oc7ccc(C#N)c(Cl)c7)C6(C)C)cn5)C4)C3)cc1)=N[C@@H](C)c1nnc(C)n1-2 [Compound I-350] | > 3000 | < 500 | < 500 | > 3000
